Assay results taken from US20240228506A1, “RIPK1 INHIBITORS AND METHODS OF USE” (Merck Sharp & Dohme LLC, priority 2021, published 2024).

biological target: T1, GST-RIPK1 (recombinant GST-RIPK1 kinase domain (residues 1-327)) (Homo sapiens, UniProt Q13546); test: RIPK1-ADP-Glo enzymatic assay; type: biochemical; conditions: 25 nM GST-RIPK1, 300 μM ATP, 3 μM dephosphorylated-MBP; 30 minutes pre-incubation, 150 minutes reaction; ten-point titration
T1 construct: recombinant GST-RIPK1 kinase domain (residues 1-327) enzyme; made in house; host or cells: baculovirus-transfected Sf21 insect cells
T1 sequence (Q13546 1-327): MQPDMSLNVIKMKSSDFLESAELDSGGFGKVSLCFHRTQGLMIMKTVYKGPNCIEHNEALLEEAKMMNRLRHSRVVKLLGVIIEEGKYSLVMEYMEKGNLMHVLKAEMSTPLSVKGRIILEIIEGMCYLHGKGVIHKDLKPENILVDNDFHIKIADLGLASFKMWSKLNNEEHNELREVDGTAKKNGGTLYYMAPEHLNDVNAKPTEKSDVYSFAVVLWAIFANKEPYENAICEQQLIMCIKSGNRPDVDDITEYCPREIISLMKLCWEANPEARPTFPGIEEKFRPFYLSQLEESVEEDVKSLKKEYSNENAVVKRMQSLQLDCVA
In short: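 Ten-point 1:3 titrations from 100000 nM, 1% DMSO, were preincubated 30 min with 25 nM GST-RIPK1 (1-327) before starting with 300 μM ATP plus 3 μM dephosphorylated MBP; 150 min reaction. ADP-Glo luminescence measured ATP-to-ADP conversion; EC50 by four-parameter sigmoidal regression.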

| Compound | IC50 |
| --- | --- |
| CCC12CC(C(=O)N3C[C@@H]4C[C@H]3c3cncc(C#N)c3O4)(C1)C2 [Compound 1-98, (2S,5S)-4-(3-ethylbicyclo[1.1.1]pentane-1-carbonyl)-2,3,4,5-tetrahydro-2,5-methanopyrido[3,4-f][1,4]oxazepine-9-carbonitrile] | 57 nM |
| N#Cc1cncc2c1O[C@H]1C[C@@H]2N(C(=O)C2(F)CCN(c3cc(-c4ccccc4)ncn3)CC2)C1 [Compound 1-70, (2S,5S)-4-(4-fluoro-1-(6-phenylpyrimidin-4-yl)piperidine-4-carbonyl)-2,3,4,5-tetrahydro-2,5-methanopyrido[3,4-f][1,4]oxazepine-9-carbonitrile] | 35 nM |
| CC1(C(=O)N2C[C@@H]3C[C@H]2c2cncc(C#N)c2O3)CCCC(F)(F)C1 (single isomer, unassigned) [Compound 1-41, (2S,5S)-4-[3,3-difluoro-1-(R or S)-methylcyclohexane-1-carbonyl]-2,3,4,5-tetrahydro-2,5-methanopyrido[3,4-f][1,4]oxazepine-9-carbonitrile] | 27 nM |
| N#Cc1cncc2c1O[C@H]1C[C@@H]2N(C(=O)C23CCCC2C3(F)F)C1 (single isomer, unassigned) [Compound 1-87, (2S,5S)-4-((1R,5S or 1S,5R)-6,6-difluorobicyclo[3.1.0]hexane-1-carbonyl)-2,3,4,5-tetrahydro-2,5-methanopyrido[3,4-f][1,4]oxazepine-9-carbonitrile] | 68 nM |
| N#Cc1cncc2c1O[C@H]1C[C@@H]2N(C(=O)C2(C(F)(F)F)CCC2)C1 [Compound 1-11, (2S,5S)-4-[1-(trifluoromethyl)cyclobutane-1-carbonyl]-2,3,4,5-tetrahydro-2,5-methanopyrido[3,4-f][1,4]oxazepine-9-carbonitrile] | 62 nM |
| N#Cc1cc(N2CCC(F)(C(=O)N3C[C@@H]4C[C@H]3c3cncc(C#N)c3O4)CC2)ncn1 [Compound 1-52, (2S,5S)-4-(1-(6-cyanopyrimidin-4-yl)-4-fluoropiperidine-4-carbonyl)-2,3,4,5-tetrahydro-2,5-methanopyrido[3,4-f][1,4]oxazepine-9-carbonitrile] | 116 nM |
| N#Cc1cncc2c1O[C@H]1C[C@@H]2N(C(=O)C23CCCCC2C3)C1 (stereo partly drawn) [Compound 1-78, (2S,5S)-4-(bicyclo[4.1.0]heptane-1-carbonyl)-2,3,4,5-tetrahydro-2,5-methanopyrido[3,4-f][1,4]oxazepine-9-carbonitrile] | 77 nM |
| N#Cc1cncc2c1O[C@H]1C[C@@H]2N(C(=O)C2CC3(CCCC3)C2)C1 [Compound 1-45, (2S,5S)-4-(spiro[3.4]octane-2-carbonyl)-2,3,4,5-tetrahydro-2,5-methanopyrido[3,4-f][1,4]oxazepine-9-carbonitrile] | 330 nM |
| CC(C)(CC(F)F)C(=O)N1C[C@@H]2C[C@H]1c1cncc(C#N)c1O2 [Compound 1-15, (2S,5S)-4-(4,4-difluoro-2,2-dimethylbutanoyl)-2,3,4,5-tetrahydro-2,5-methanopyrido[3,4-f][1,4]oxazepine-9-carbonitrile] | 99 nM |
| CC(F)(F)C1(C(=O)N2C[C@@H]3C[C@H]2c2cncc(C#N)c2O3)CC1 [Compound 1-27, (2S,5S)-4-[1-(1,1-difluoroethyl)cyclopropane-1-carbonyl]-2,3,4,5-tetrahydro-2,5-methanopyrido[3,4-f][1,4]oxazepine-9-carbonitrile] | 221 nM |

Next, values leading:

| IC50 | Compound |
| --- | --- |
| 8 nM | O=C(N1C[C@@H]2C[C@H]1c1cncc(Cl)c1O2)C12CCC(F)(CC1)C2 [Compound 2-3, ((2S,5S)-9-Chloro-2,3-dihydro-2,5-methanopyrido[3,4-f][1,4]oxazepin-4(5H)-yl)(4-fluorobicyclo[2.2.1]heptan-1-yl)methanone] |
| 24 nM | CC(C)(C(=O)N1C[C@@H]2C[C@H]1c1cncc(C#Cc3ccc(C4CC4)nc3)c1O2)C(F)F [Compound 2-83, 1-((2S,5S)-9-((6-cyclopropylpyridin-3-yl)ethynyl)-2,3-dihydro-2,5-methanopyrido[3,4-f][1,4]oxazepin-4(5H)-yl)-3,3-difluoro-2,2-dimethylpropan-1-one] |
| 34 nM | CC1(C(=O)N2C[C@@H]3C[C@H]2c2cncc(C#Cc4ccc(F)cc4)c2O3)CCCC1 [Compound 2-121, ((2S,5S)-9-((4-Fluorophenyl)ethynyl)-2,3-dihydro-2,5-methanopyrido[3,4-f][1,4]oxazepin-4(5H)-yl)(1-methylcyclopentyl)methanone] |
| 134 nM | O=C(N1C[C@@H]2C[C@H]1c1cncc(C#Cc3ncccn3)c1O2)C12CCC(C(F)(F)F)(CC1)C2 [Compound 2-68, ((2S,5S)-9-(pyrimidin-2-ylethynyl)-2,3-dihydro-2,5-methanopyrido[3,4-f][1,4]oxazepin-4(5H)-yl)(4-(trifluoromethyl)bicyclo [2.2.1]heptan-1-yl)methanone] |
| 19 nM | CC(C)(C)c1ncc(C#Cc2cncc3c2O[C@H]2C[C@@H]3N(C(=O)C(C)(C)C(F)F)C2)cn1 [Compound 2-73, 1-((2S,5S)-9-((2-(tert-butyl)pyrimidin-5-yl)ethynyl)-2,3-dihydro-2,5-methanopyrido[3,4-f][1,4]oxazepin-4(5H)-yl)-3,3-difluoro-2,2-dimethylpropan-1-one] |
| 90 nM | O=C(N1C[C@@H]2C[C@H]1c1cncc(F)c1O2)C12CCC(CC1(F)F)C2 (single isomer, unassigned) [Compound 2-18, (2,2-(S or R)-difluorobicyclo[2.2.1]heptan-1-yl)((28,5S)-9-fluoro-2,3-dihydro-2,5-methanopyrido[3,4-f][1,4]oxazepin-4(5H)-yl)methanone] |
| 26 nM | Cn1cncc1C#Cc1cncc2c1O[C@H]1C[C@@H]2N(C(=O)C23CCC(C(F)(F)F)(CC2)C3)C1 [Compound 2-55, ((2S,5S)-9-((1-methyl-1H-imidazol-5-yl)ethynyl)-2,3-dihydro-2,5-methanopyrido[3,4-f][1,4]oxazepin-4(5H)-yl)(4-(trifluoromethyl)bicyclo [2.2.1]heptan-1-yl)methanone] |
| 38 nM | C#Cc1cncc2c1O[C@H]1C[C@@H]2N(C(=O)C23CCC(C(F)(F)F)(CC2)C3)C1 [Compound 2-33, ((2S,5S)-9-ethynyl-2,3-dihydro-2,5-methanopyrido[3,4-f][1,4]oxazepin-4(5H)-yl)(4-(trifluoromethyl)bicyclo [2.2.1]heptan-1-yl)methanone] |
| 394 nM | CC(C)(C)C(=O)N1C[C@@H]2C[C@H]1c1cncc(Br)c1O2 [Compound 2-8, 1-((2S,5S)-9-bromo-2,3-dihydro-2,5-methanopyrido[3,4-f][1,4]oxazepin-4(5H)-yl)-2,2-dimethylpropan-1-one] |
| 227 nM | CC1(C(=O)N2C[C@@H]3C[C@H]2c2cncc(Cl)c2O3)CCC1 [Compound 2-10, ((2S,5S)-9-chloro-2,3-dihydro-2,5-methanopyrido[3,4-f][1,4]oxazepin-4(5H)-yl)(1-methylcyclobutyl)methanone] |
| 453 nM | O=C(N1C[C@@H]2C[C@H]1c1cncc(F)c1O2)C12CCC(CC1(F)F)C2 (single isomer, unassigned) [Compound 2-19, (2,2-(S or R)-difluorobicyclo[2.2.1]heptan-1-yl)((2S,5S)-9-fluoro-2,3-dihydro-2,5-methanopyrido[3,4-f][1,4]oxazepin-4(5H)-yl)methanone] |
| 41 nM | COc1ccnc(C#Cc2cncc3c2O[C@H]2C[C@@H]3N(C(=O)C34CCC(C(F)(F)F)(CC3)C4)C2)c1 [Compound 2-69, ((2S,5S)-9-((4-methoxypyridin-2-yl)ethynyl)-2,3-dihydro-2,5-methanopyrido[3,4-f][1,4]oxazepin-4(5H)-yl)(4-(trifluoromethyl)bicyclo [2.2.1]heptan-1-yl)methanone] |
| 89 nM | Cc1nnc(C#Cc2cncc3c2O[C@H]2C[C@@H]3N(C(=O)C(C)(C)C(F)F)C2)o1 [Compound 2-71, 3,3-Difluoro-2,2-dimethyl-1-((2S,5S)-9-((5-methyl-1,3,4-oxadiazol-2-yl)ethynyl)-2,3-dihydro-2,5-methanopyrido[3,4-f][1,4]oxazepin-4(5H)-yl)propan-1-one] |
| 47 nM | Cc1ncc2c(c1F)O[C@H]1C[C@@H]2N(C(=O)C23CCC(C(F)(F)F)(CC2)C3)C1 [Compound 2-27, ((2S,5S)-9-Fluoro-8-methyl-2,3-dihydro-2,5-methanopyrido[3,4-f][1,4]oxazepin-4(5H)-yl)(4-(trifluoromethyl)bicyclo[2.2.1]heptan-1-yl)methanone] |
| 48 nM | O=C(N1C[C@@H]2C[C@H]1c1cncc(C#Cc3cncc(F)c3)c1O2)C12CCC(C(F)(F)F)(CC1)C2 [Compound 2-96, ((2S,5S)-9-((5-Fluoropyridin-3-yl)ethynyl)-2,3-dihydro-2,5-methanopyrido[3,4-f][1,4]oxazepin-4(5H)-yl)(4-(trifluoromethyl)bicyclo[2.2.1]heptan-1-yl)methanone] |
| 12 nM | N#Cc1cncc2c1S[C@H]1C[C@@H]2N(C(=O)C23CCC(F)(CC2)C3)C1 [Compound 4-3, (2S,5S)-4-(4-fluorobicyclo[2.2.1]heptane-1-carbonyl)-2,3,4,5-tetrahydro-2,5-methanopyrido[3,4-f][1,4]thiazepine-9-carbonitrile] |
